Tests used:
PARP2 = PARP2 (Mus musculus (Mouse), UniProt O88554); assay: PARP2 autoparsylation assay (LC/MS detection of nicotinamide); assay type: biochemical; settings: 20 nM enzyme, 250 μM β-NAD+, 60 min
Method: (§1) The autoparsylation activity of the TNKS 1/2 or PARP1/2 enzymes was measured by the liquid chromatography-mass spectrometry (LC/MS) detection of nicotinamide as readout. Compound activity in inhibiting the TNKS and PARP autoparsylation was evaluated by IC50 measurements.

[1] = system: Non-small lung cancer ABC-1 cells; assay: Cellular proliferation assay (CellTiter-Glo); assay type: cell-based; settings: Homo sapiens, 72 h; ABC-1 cells, 3 days of compound treatment; read-out: ABC-1 IC50
Method: Cellular Proliferation Assay to Determine Compound Inhibition of Cancer Cell Growth
Viable cells were measured after 3 days of compound treatment using the CellTiter-Glo assay (Promega, G7570). Assay was performed following the manufacture protocol.

Human PARP1 = Human PARP1 (Homo sapiens (Human), UniProt P09874); assay: PARP1 autoparsylation assay (LC/MS detection of nicotinamide); assay type: biochemical; settings: 20 nM enzyme, 250 μM β-NAD+, 60 min
Method: as §1

[2] = system: Axin2 protein in SW480 cells; assay: Cellular ELISA assay of Axin2 protein stabilization; assay type: cell-based; settings: Homo sapiens, 24 hrs, read-out: Axin AC50
Procedure, shortened: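 SW480 colorectal cells seeded overnight, treated with compound, then lysed. Axin2 in lysates measured by sandwich ELISA: anti-Axin2 capture antibody coated at 1 μg/ml (pH 9.2), lysate 2 h at room temperature, biotinylated anti-Axin2 detection 2 h, then streptavidin-HRP 30 min.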

[3] = molecular target: human tankyrase 1 PARP catalytic domain, TNKS1P (Homo sapiens (Human), UniProt O95271); assay: TNKS1 autoparsylation assay (LC/MS detection of nicotinamide); settings: read-out: TNKS1 AP IC50, 20 nM enzyme, 250 μM β-NAD+, 60 min
Method: Biochemical Assay to Determine Compound Inhibition of TNKS Enzyme Activity
The autoparsylation activity of the TNKS 1/2 or PARP1/2 enzymes was measured by the liquid chromatography-mass spectrometry (LC/MS) detection of nicotinamide as readout. Compound activity in inhibiting the TNKS and PARP autoparsylation was evaluated by IC50 measurements. […] For the background control wells, 10 μL of the 5× quenching solution per well was added prior to the addition of β-NAD^+. The % Inhibition was calculated as: (Control−Sample)/(Control−Background)*100.

[4] = system: Wnt ligand-induced signaling in HEK293 cells; assay: Wnt-responsive Super-TOpFlash (STF) luciferase reporter gene assay; assay type: cell-based; settings: Homo sapiens, Wnt3A condition medium
Procedure, shortened: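 HEK293 cells (8000/well, 5% FBS medium) treated with 20% mouse L-cell Wnt3A conditioned medium plus compounds in 10-point serial dilution; luciferase read next day. Inhibition calculated relative to Wnt3A-induced signal without compound and background without Wnt3A CM or compound.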

[5] = molecular target: tankyrase 2 protein PARP domain, TNKS2P (Homo sapiens (Human), UniProt Q9H2K2); assay: TNKS2 autoparsylation assay (LC/MS detection of nicotinamide); settings: read-out: TNKS2 AP IC50, 20 nM enzyme, 250 μM β-NAD+, 60 min
Sequence of tankyrase 2 protein PARP domain, TNKS2P (Q9H2K2 959-1164): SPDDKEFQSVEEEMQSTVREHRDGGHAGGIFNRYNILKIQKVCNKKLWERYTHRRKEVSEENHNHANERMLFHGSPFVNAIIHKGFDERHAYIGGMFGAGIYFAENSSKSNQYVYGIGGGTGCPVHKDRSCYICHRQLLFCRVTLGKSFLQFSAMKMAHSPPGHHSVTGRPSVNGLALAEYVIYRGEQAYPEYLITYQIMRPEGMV

Sequence of PARP2 (O88554 whole entry): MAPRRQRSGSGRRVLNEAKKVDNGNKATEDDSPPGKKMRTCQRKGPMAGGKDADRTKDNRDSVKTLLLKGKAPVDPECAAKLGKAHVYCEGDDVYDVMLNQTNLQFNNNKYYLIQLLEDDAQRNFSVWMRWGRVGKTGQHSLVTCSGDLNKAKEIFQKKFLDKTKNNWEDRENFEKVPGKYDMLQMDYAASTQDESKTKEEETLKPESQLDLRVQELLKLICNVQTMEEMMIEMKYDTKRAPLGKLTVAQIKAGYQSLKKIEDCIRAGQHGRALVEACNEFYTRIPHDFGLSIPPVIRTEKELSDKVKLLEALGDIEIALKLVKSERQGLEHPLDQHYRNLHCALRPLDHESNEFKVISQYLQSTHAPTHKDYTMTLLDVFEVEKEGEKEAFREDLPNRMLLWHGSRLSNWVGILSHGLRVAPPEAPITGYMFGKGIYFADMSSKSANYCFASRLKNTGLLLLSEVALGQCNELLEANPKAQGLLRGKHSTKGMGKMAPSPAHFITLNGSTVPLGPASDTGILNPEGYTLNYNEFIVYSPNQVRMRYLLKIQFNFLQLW
Sequence of Human PARP1 (P09874 whole entry): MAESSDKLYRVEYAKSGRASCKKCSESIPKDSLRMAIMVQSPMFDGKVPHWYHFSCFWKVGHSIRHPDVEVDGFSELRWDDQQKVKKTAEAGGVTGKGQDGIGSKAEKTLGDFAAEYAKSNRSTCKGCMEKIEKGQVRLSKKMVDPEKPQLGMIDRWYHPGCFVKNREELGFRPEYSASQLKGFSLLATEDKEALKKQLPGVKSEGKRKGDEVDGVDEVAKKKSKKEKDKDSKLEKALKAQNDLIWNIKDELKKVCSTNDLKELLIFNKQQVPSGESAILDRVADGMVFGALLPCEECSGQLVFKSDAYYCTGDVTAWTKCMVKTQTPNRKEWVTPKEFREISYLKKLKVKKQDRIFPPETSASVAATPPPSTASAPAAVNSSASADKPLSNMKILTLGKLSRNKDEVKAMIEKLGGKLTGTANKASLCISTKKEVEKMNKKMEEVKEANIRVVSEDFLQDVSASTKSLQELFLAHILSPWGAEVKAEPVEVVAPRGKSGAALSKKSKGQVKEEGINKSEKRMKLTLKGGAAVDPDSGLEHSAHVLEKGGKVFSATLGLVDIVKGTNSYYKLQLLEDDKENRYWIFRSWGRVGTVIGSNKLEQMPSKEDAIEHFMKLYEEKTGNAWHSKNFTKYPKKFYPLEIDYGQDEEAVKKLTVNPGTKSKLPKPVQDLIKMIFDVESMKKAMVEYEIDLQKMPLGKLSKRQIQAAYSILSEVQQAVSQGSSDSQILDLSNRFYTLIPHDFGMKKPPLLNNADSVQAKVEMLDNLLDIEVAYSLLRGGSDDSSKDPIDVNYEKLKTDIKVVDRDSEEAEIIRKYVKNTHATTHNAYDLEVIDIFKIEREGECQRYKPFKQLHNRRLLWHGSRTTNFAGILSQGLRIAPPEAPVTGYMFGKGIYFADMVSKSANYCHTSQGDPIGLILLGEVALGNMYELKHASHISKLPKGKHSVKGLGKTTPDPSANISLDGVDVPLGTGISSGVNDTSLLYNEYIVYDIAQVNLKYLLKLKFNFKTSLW
Sequence of human tankyrase 1 PARP catalytic domain, TNKS1P (O95271 1112-1317): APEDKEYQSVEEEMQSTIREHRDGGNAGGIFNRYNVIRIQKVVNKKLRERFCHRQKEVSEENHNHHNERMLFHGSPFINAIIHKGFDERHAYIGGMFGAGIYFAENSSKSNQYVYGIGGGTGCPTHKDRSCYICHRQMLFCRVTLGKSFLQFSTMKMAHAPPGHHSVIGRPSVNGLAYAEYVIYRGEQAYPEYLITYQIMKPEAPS

Row | Structure (SMILES) | IC50 (PARP2) [nM] | IC50 [1] [nM] | IC50 (Human PARP1) [nM] | AC50 [2] [nM] | IC50 [3] [nM] | IC50 [4] [nM] | IC50 [5] [nM]
1 | COCCOc1ccc(C(=O)C2CCN(CC(=O)NCc3nc4c(c(=O)[nH]3)COCC4)CC2)cc1 [Example 88, 2-{4-[4-(2-Methoxy-ethoxy)-benzoyl]-piperidin-1-yl}-N-(4-oxo-3,5,7,8-tetrahydro-4H-pyrano[4,3-d]pyrimidin-2-ylmethyl)-acetamide] | 2370 ± 520 | 87 | 6800 ± 2000 | 69 ± 7 | 26 ± 1 | 21 ± 5 | 6
2 | CC(C)(C)CN(Cc1nc2c(c(=O)[nH]1)COCC2)C(=O)CN1CCC(C(=O)c2ccc(F)cc2)CC1 [Example 14, 2-(4-(4-Fluorobenzoyl)piperidin-1-yl)-N-neopentyl-N-((4-oxo-4,5,7,8-tetrahydro-3H-pyrano[4,3-d]pyrimidin-2-yl)methyl)acetamide] | > 19000 | 270 | > 19000 | 501 ± 29 | 60 ± 7 | 49 ± 23 | 20 ± 1
3 | CC(c1ccc(F)cc1F)N(Cc1nc2c(c(=O)[nH]1)COCC2)C(=O)CN1CCC(C(=O)c2ccc(F)cc2)CC1 (centres unmarked) [Example 37, N-(1-(2,4-Difluorophenyl)ethyl)-2-(4-(4-fluorobenzoyl)piperidin-1-yl)-N-((4-oxo-4,5,7,8-tetrahydro-3H-pyrano[4,3-d]pyrimidin-2-yl)methyl)acetamide] | > 19000 | 510 | > 19000 | 960 ± 520 | 155 ± 34 | 96 ± 19 | 39.5 ± 7.8
4 | CC#CCOc1ccc(C(=O)C2CCN(CC(=O)N(Cc3nc4c(c(=O)[nH]3)COCC4)CC3CC3)CC2)cc1 [Example 78, 2-[4-(4-But-2-ynyloxy-benzoyl)-piperidin-1-yl]-N-cyclopropylmethyl-N-(4-oxo-3,5,7,8-tetrahydro-4H-pyrano[4,3-d]pyrimidin-2-ylmethyl)-acetamide] | > 19000 | 2010 | 14700 ± 4600 | 1920 ± 240 | 29 ± 2 | 155 ± 8 | 15 ± 2
5 | O=C(c1ccc(OC(F)(F)F)cc1)C1CCN(CC(=O)N(Cc2nc3c(c(=O)[nH]2)COCC3)CC2CC2)CC1 [Example 70, N-Cyclopropylmethyl-N-(4-oxo-3,5,7,8-tetrahydro-4H-pyrano[4,3-c]pyrimidin-2-ylmethyl)-2-[4-(4-trifluoromethoxy-benzoyl)-piperidin-1-yl]-acetamide] | > 19000 | 392 | > 19000 | 135 ± 7 | 37 ± 2 | 8 ± 1.6 | 8
6 | O=C(c1ccc(F)cc1)C1CCN(CC(=O)N(CCF)Cc2nc3c(c(=O)[nH]2)COCC3)CC1 [Example 44, 2-[4-(4-Fluoro-benzoyl)-piperidin-1-yl]-N-(2-fluoro-ethyl)-N-(4-oxo-3,5,7,8-tetrahydro-4H-pyrano[4,3-d]pyrimidin-2-ylmethyl)-acetamide] | > 19000 | 6400 | > 19000 | > 10000 | 72 ± 1.4 | 1470 ± 360 | 19 ± 1.4
7 | COc1ccc(C(=O)C2CCN(CC(=O)NCc3nc(C)c(C)c(=O)[nH]3)CC2)cc1 [Example 12, N-((4,5-Dimethyl-6-oxo-1,6-dihydropyrimidin-2-yl)methyl)-2-(4-(4-methoxybenzoyl)piperidin-1-yl)acetamide] | > 19000 | 53 | > 19000 | 32 ± 4 | 40 ± 2 | 7 ± 4 | 20 ± 3
8 | O=C(CN1CCC(C(=O)c2ccc(Cl)cc2)CC1)NCc1nc2c(c(=O)[nH]1)COCC2 [Example 2, 2-[4-(4-Chloro-benzoyl)-piperidin-1-yl]-N-(4-oxo-3,5,7,8-tetrahydro-4H-pyrano[4,3-d]-pyrimidin-2-ylmethyl)-acetamide] | 2590 ± 290 | 393 | 9100 ± 1000 | 205 ± 61 | 37 ± 2 | 10 ± 2 | 7
